# Paper PMC11696749, “Deep Multitask Learning-Driven Discovery of New Compounds Targeting Leishmania infantum” (ACS Omega, 2024)
# Like-named read-outs stand apart in the source and are kept apart here.
# Assays:
# [1] = test system: L. infantum (MHOM/BR/2002/LPC-RPV) promastigotes; experiment: In vitro antileishmanial activity against promastigotes (resazurin); format: cell-based, Leishmania infantum; settings: 48 h at 28 °C, three independent experiments
# Procedure: (§1) L. infantum (MHOM/BR/2002/LPC-RPV) promastigotes were maintained in Schneider’s medium supplemented with 10% (v/v) fetal bovine serum (FBS, Gibco) and 100 U/mL penicillin and 100 μg/mL streptomycin at 28 °C. MRC-5 human primary fetal lung fibroblast cells were maintained in RPMI 1640 medium supplemented with 10% heat-inactivated fetal calf serum (FCS) and 25 mM HEPES under a 5% CO2 atmosphere at 37 °C and pH 7.4.
# To evaluate the effect of prioritized compounds on parasite viability, 4 × 10^6 promastigotes/mL were incubated in the presence of a series of 11 points from 200–0.195 or 50–0.04 μM plus control (0.1% DMSO) for 48 h at 28 °C to a final volume of 200 μL in 96-well microplate. Next, 20 μL of resazurin solution (0.39 mM) was added to each well and incubated for 4 h, and then fluorescence was recorded (570 nmex/595 nmem) on a microplate reader SpectraMax M5 (Molecular Devices, Sunnyvale, CA). The IC50 from three independent experiments was calculated from the dose–response curve fitted in a four-parameter logistic, nonlinear regression model using GraphPad Prism software (CA) v.8.
# [2] = test system: MRC-5 human primary fetal lung fibroblast cells; experiment: In vitro cytotoxicity test on MRC-5 cells (resazurin); format: cell-based; settings: for SI (selectivity index): ratio of CC50 (MRC-5) to IC50 (L. infantum)
# Procedure: as §1
# (§2) MRC-5 cells were seeded in 96-well plates at a density of 1 × 10^4 cells/well using 100 μL of medium. After 24 h, compounds were serially diluted in another set of 96-well plates starting from a concentration of 250 μM (11 dilution points plus the control), using 100 μL of complete culture medium per well. Subsequently, 100 μL of these diluted compounds were transferred to the seeded cells. Amphotericin B (Sigma-Aldrich) dissolved in DMSO was used as a control and diluted from an initial concentration of 0.5 μM. After 72 h of incubation, resazurin was added to a final concentration of 45 μM and incubated for 4 h before measuring fluorescence.
# [3] = as above; format: cell-based, human; settings: human, MRC-5 primary fetal lung fibroblast cells, pH 7.4, MRC-5 cells, 72 h incubation, resazurin; two independent experiments
# Procedure: as §1, §2
# [4] = test system: macrophage; design: method as in ref 44 (Khare et al.); settings: Figure 10; ref 44 (Khare et al.); cited from earlier work
# [5] = test system: L. donovani; design: method as in ref 44 (Khare et al.); settings: Figure 10; ref 44 (Khare et al.); cited from earlier work
# [6] = test system: 3T3; design: method as in ref 44 (Khare et al.); settings: Figure 10; ref 44 (Khare et al.); cited from earlier work
# [7] = test system: L. donovani; design: method as in ref 45 (Wyllie et al.); settings: Figure 10; ref 45 (Wyllie et al.); cited from earlier work
# [8] = test system: THP-1; design: method as in ref 45 (Wyllie et al.); settings: Figure 10; ref 45 (Wyllie et al.); cited from earlier work
SMILES,"IC50 ([1]; Leishmania infantum, 48 h) [µM]",CC50 at 72 h [3] [µM],other results
Cc1cc(C)nc(-n2nc(C)c3c2NC(=O)CC3c2ccc3c(c2)OCO3)n1 (centres unmarked) [LC-35],17.1 ± 2.89,145 ± 21.8,SI (selectivity index) [2]: 8.47
CC(C)OC(=O)Nc1cnc2nc(-c3cc(NC(=O)c4ccco4)ccc3Cl)cn2c1 [GNF2636],–,–,CC50 [4]: 14.1 µM; IC50 [5]: 0.35 µM; CC50 [6]: 3.5 µM
Cc1nc(O)cc(C2CCN(c3nccc(-c4ccccn4)n3)CC2)n1 [LC-27],> 100,–,–
Cc1nc(C)c(C(=O)Nc2ccc(F)c(-c3nc4ncc(-c5ccccc5)cn4n3)c2)o1 [GNF3849],–,–,IC50 [5]: 0.071 µM
O=C(Nc1cccnc1Cl)c1cc(-c2ccc3c(c2)OCO3)on1 [LC-36],> 100,–,–
CN1CCC(Nc2nccc(-c3ccccn3)n2)C(Cc2ccccc2)C1 (centres unmarked) [LC-26],11.9 ± 1.7,48.4 ± 16.9,–
"C[C@@H]1[C@H](O)[C@@H](C)/C=C/C=C/C=C/C=C/C=C/C=C/C=C/[C@H](O[C@@H]2O[C@H](C)[C@@H](O)[C@H](N)[C@@H]2O)C[C@@H]2O[C@](O)(C[C@@H](O)C[C@@H](O)[C@H](O)CC[C@@H](O)C[C@@H](O)CC(=O)O[C@H]1C)C[C@H](O)[C@H]2C(=O)O [Amphotericin B, reference compound]",0.079 ± 0.001,> 0.67,–
O=C(Nc1ccc(F)c(-c2cn3nc(-c4ccccc4)cnc3n2)c1)N1CCCC1 [compound 7],–,–,IC50 [7]: 0.35 µM; CC50 [8]: > 50 µM
CC(=O)Nc1ccc(S(=O)(=O)Nc2cc(C)nn2-c2ccccn2)cc1 [LC-38],> 100,–,–
Cc1nc2ccc(Cl)cn2c1C(=O)N1CCCC1c1ccccn1 (centres unmarked) [LC-25],> 100,–,–
O=C(Nc1ccc(F)c(-c2cn3cc(-c4ccccc4)cnc3n2)c1)N1CCCC1 [compound 6],–,–,IC50 [7]: 0.15 µM; CC50 [8]: > 50 µM
Fc1ccc(OCc2nc3cc(Cl)ccc3[nH]2)cc1 [LC-31],4.51 ± 2.25,40.7 ± 4.33,SI (selectivity index) [2]: 9.04
Cc1cc(NCc2ccncc2C)nc(N2CCCCC2)n1 [LC-20],> 100,–,–
O=C(Nc1ccc(Cl)c(-c2nc3ncccc3o2)c1)c1cccs1 [LC-15],1.5,> 32.4,"IC50 [1]: 1.05 ± 0.37 µM; CC50 ([2]; MRC-5 cells, 72 h incubation, resazurin, two independent experiments): 32.4 ± 8.31 µM; SI (selectivity index) [2]: 30.9"
Cc1nc(C)c(C(=O)Nc2ccc(F)c(-c3nc4ncc(-c5ccccn5)cn4n3)c2)o1 [GNF6702],–,–,IC50 [5]: 0.0018 µM
Cc1ccc(C2CC(=O)Nc3c2c(C)nn3-c2nc(C)cc(C)n2)cc1 (centres unmarked) [LC-37],15.6 ± 2.36,> 250,SI (selectivity index) [2]: >15.9
